According to paper PMC3871271 (FEBS Open Bio, 2013):
“Also recorded” adds a separate entry of the source. Read-outs that look alike come from different tables or passages of the source.

Key:
C-SdCen E144A = assay: ITC binding of target peptides to C-SdCen E144A; set-up: species or system Scherffelia dubia; details: for effect of E144A mutation on binding (in words): E144A vs WT; for TΔS: from ΔG = ΔH − TΔS; for ΔΔH: difference in binding enthalpy SdCen wt vs E144A
C-SdCen F109L-E144A = assay: ITC binding of target peptides to C-SdCen F109L-E144A; set-up: species or system Scherffelia dubia; details: for TΔS: from ΔG = ΔH − TΔS; for ΔΔH: difference in binding enthalpy SdCen wt vs F109L-E144A; for ΔΔH / ΔΔG: EDTA 2 mM; for ΔΔG: difference in free energy SdCen wt vs F109L-E144A
C-SdCen F109L = assay: ITC binding of target peptides to C-SdCen F109L; set-up: species or system Scherffelia dubia; details: for factor of increase in change in enthalpy (ΔH) / factor of reduction of binding constant by F109L: EDTA; for TΔS / ΔG: F109L, no Ca2+ (EDTA 2 mM), pH 7.5; for TΔS: from ΔG = ΔH − TΔS; for ΔG: ΔG = −RTln(1/Ka); for ΔΔH: difference in binding enthalpy SdCen wt vs F109L; for ΔΔH / ΔΔG: EDTA 2 mM; for ΔΔG: difference in free energy SdCen wt vs F109L
[1] = system: C-SdCen WT (C-terminal domain M93-F168 of SdCen); assay: ITC binding of target peptides to wild-type C-SdCen; set-up: species or system Scherffelia dubia; details: WT; for TΔS: from ΔG = ΔH − TΔS; for effect of calcium on binding (in words): presence vs absence of calcium
[2] = biological target: T1, C-terminal domain of Scherffelia dubia centrin, wild type (Scherffelia dubia, UniProt Q06827 93-168); assay: ITC
T1 sequence (looked up): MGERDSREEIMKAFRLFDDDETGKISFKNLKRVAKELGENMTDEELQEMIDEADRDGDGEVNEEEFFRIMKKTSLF

[3] = biological target: T1, C-terminal domain of Scherffelia dubia …; assay: ITC; remark: listed apart in the source
[4] = EDTA, 30 °C to 37 °C, becoming more negative

## 677-SQHNRQLLRGALRRWK-692 [R18-Sfi1]
C-SdCen E144A
  effect of E144A mutation on binding (in words): no effect on the binding of C-SdCen to R18-Sfi1
C-SdCen E144A; listed as Sfi1
  effect of E144A mutation on binding (in words): had no effect on Sfi1 binding
C-SdCen E144A; E144A, 30 °C, no Ca2+ (EDTA 2 mM), pH 7.5
  TΔS: -21.06 kcal/mol
C-SdCen E144A; E144A, 30 °C, no Ca2+ (EDTA 2 mM), pH 7.5, ΔG = −RTln(1/Ka)
  ΔG: -9.25 kcal/mol
C-SdCen E144A; E144A, 37 °C, no Ca2+ (EDTA 2 mM), pH 7.5
  TΔS: -26.88 kcal/mol
C-SdCen E144A; 30 °C, EDTA 2 mM
  ΔΔH: -1.19 kcal/mol
C-SdCen E144A; 37 °C, EDTA 2 mM
  ΔΔH: -0.87 kcal/mol
C-SdCen E144A; difference in free energy SdCen wt vs E144A, 30 °C, EDTA 2 mM
  ΔΔG: -0.01 kcal/mol
C-SdCen F109L-E144A; F109L-E144A vs WT and single mutants
  effect of F109L-E144A mutation on binding (in words): exhibited the same behavior as wild-type SdCen at both temperatures
C-SdCen F109L-E144A; F109L-E144A, 30 °C, no Ca2+ (EDTA 2 mM), pH 7.5
  TΔS: -16.33 kcal/mol
C-SdCen F109L-E144A; F109L-E144A, 30 °C, no Ca2+ (EDTA 2 mM), pH 7.5, ΔG = −RTln(1/Ka)
  ΔG: -8.07 kcal/mol
C-SdCen F109L-E144A; F109L-E144A, 37 °C, no Ca2+ (EDTA 2 mM), pH 7.5
  TΔS: -18.24 kcal/mol
C-SdCen F109L-E144A; 30 °C
  ΔΔH: -7.1 kcal/mol
  ΔΔG: -1.19 kcal/mol
C-SdCen F109L-E144A; 37 °C
  ΔΔH: -10.66 kcal/mol
  ΔΔG: -1.12 kcal/mol
C-SdCen F109L; F109L vs WT
  effect of F109L mutation on binding (in words): reduced the binding; also recorded: decreased the binding
C-SdCen F109L; F109L vs WT, 30 °C
  factor of increase in change in enthalpy (ΔH): 1.4
  factor of reduction of binding constant by F109L: 6
C-SdCen F109L; F109L vs WT, 37 °C
  factor of increase in change in enthalpy (ΔH): 1.4
  factor of reduction of binding constant by F109L: 6
C-SdCen F109L; F109L vs WT, temperature not stated
  factor of decrease in Ka by F109L: 6
C-SdCen F109L; 30 °C
  TΔS: -14.96 kcal/mol
  ΔG: -8.24 kcal/mol
  ΔΔH: -8.3 kcal/mol
  ΔΔG: -1.02 kcal/mol
C-SdCen F109L; 37 °C
  TΔS: -22.3 kcal/mol
  ΔG: -8.1 kcal/mol
  ΔΔH: -6.69 kcal/mol
  ΔΔG: -1.21 kcal/mol
[1]; 30 °C to 37 °C, XPC vs Sfi1
  effect of temperature increase (in words): a more pronounced effect on Sfi1
[1]; 30 °C, no Ca2+ (EDTA 2 mM), pH 7.5
  TΔS: -22.24 kcal/mol
[1]; 30 °C, no Ca2+ (EDTA 2 mM), pH 7.5, ΔG = −RTln(1/Ka)
  ΔG: -9.26 kcal/mol
[1]; 37 °C, no Ca2+ (EDTA 2 mM), pH 7.5
  TΔS: -27.78 kcal/mol
[1]; EDTA, 30 °C to 37 °C
  factor of decrease in binding on temperature increase: 4
[1]; [4]
  factor of decrease in TΔS on temperature increase: 1.3
  factor of decrease in ΔH on temperature increase: 1.2
[1]
  effect of calcium on binding (in words): the presence of calcium enhanced the binding
[1]; listed as Sfi1
  effect of calcium on binding (in words): Calcium was not required for binding although its presence enhanced the binding

## Ac-SQHNRQLLRGALRRWK-NH2 [R18-HsSfi1 peptide]
[2]
  Ka: 4.5e+06 M⁻¹
  dH: -31.5 kcal/mol
[3]
  Ka: 1.23e+06 M⁻¹
  dH: -37.1 kcal/mol
